Peptide text beside a SMILES is read from it. * marks the point of attachment. tBu = CC(C)(C)*
What was measured:
[1] = as reported in the literature; cited from earlier work
[2] = test system: panel of tasters; experiment: Sensory evaluation of sweetness: taste panel matches aqueous solutions of the compound to sucrose standard solutions (sucrose equivalency); type: in vivo; conditions: 0.05% concentration of compound
Source text: A taste procedure for determination of sweetness merely involves the determination of sucrose equivalency. Sucrose equivalence for sweeteners are readily determined. The amount of a sweetener that is equivalent to a given weight percent sucrose can be determined by having a panel of tasters taste solutions of a sweetener at known concentrations and match its sweetness to standard solutions of sucrose. The following sensory evaluations were obtained by a panel of experts using known weight percent aqueous solutions of the above compound matched to sucrose standard solutions as previously described.

Structure (SMILES)	Sucrose Equivalent (Table 2, sweetness values of alkyl ethers) [1]	Sweetness ratio (Compound:Sucrose) [2]	Sucrose Equivalent ([2]; aqueous solution) [%]
COC(=O)[C@H](COC(C)(C)C)NC(=O)[C@@H](N)CC(=O)O [t-butyl, L-aspartyl-O-t-butyl-L-serine methyl ester, reference compound] (H-Asp-Ser(tBu)-OMe)	140	120	6
CCC(C)(C)OC[C@H](NC(=O)[C@@H](N)CC(=O)O)C(=O)OC [tert. C5 H11, L-aspartyl-O-t-amyl-L-serine methyl ester]	230		

Source: patent publication US4622417A, “L-aminodicarboxylic-(O-cycloalkyl)-L-aminocarboxylate alkyl ester sweeteners” (General Foods Corporation, priority 1984, dated 1986)
